Reference: patent US9351486B2, “Combinations of derivatized saccharide surfactants and etheramine oxide surfactants as herbicide adjuvants” (Monsanto Technology LLC, priority 2008, dated 2016)

Assays:
Type in all cases: in vivo
[1] = tested on: VIOAR, Field violet (Viola arvensis Murr.); test: Greenhouse herbicidal efficacy on VIOAR
Protocol: (§1) Spray compositions of the Examples, containing an exogenous chemical, such as glyphosate potassium salt, in addition to the excipient ingredients listed, were evaluated for herbicidal efficacy according to the following method.
(§2) The amount of exogenous chemical was selected to provide the desired rate in grams per hectare (g/ha) when applied in a spray volume of 93 l/ha. Several exogenous chemical rates were applied for each composition. Thus, except where otherwise indicated, when spray compositions were tested, the concentration of exogenous chemical varied in direct proportion to exogenous chemical rate, but the concentration of excipient ingredients was held constant across different exogenous chemical rates.
(§3) Concentrate compositions were tested by dilution, dissolution or dispersion in water to form spray compositions. In these spray compositions prepared from concentrates, the concentration of excipient ingredients varied with that of exogenous chemical.
(§4) The herbicidal effectiveness data set forth herein report “inhibition” as a percentage following a standard procedure in the art which reflects a visual assessment of plant mortality and growth reduction by comparison with untreated plants, made by technicians specially trained to make and record such observations. In all cases, a single technician makes all assessments of percent inhibition within any one experiment or trial. Such measurements are relied upon and regularly reported by Monsanto Company in the course of its herbicide business.
(§5) The efficacy of potassium glyphosate formulations containing an APG surfactant and an EAO surfactant in an APG:EAO weight ratio of 4:1 and a glyphosate a.e. to total surfactant weight ratio of about 2.9:1 were evaluated in greenhouse trials. Also evaluated were potassium glyphosate compositions containing either an alkylpolyglucoside surfactant (designated as “Surfactant L” and “Surfactant N”) or an alkoxylated etheramine oxide surfactant (designated as “Surfactant G”) wherein the weight ratio of glyphosate a.e. to surfactant was about 2.9:1. Finally, the efficacy of potassium glyphosate not containing a surfactant (K-GLY) and comparative compositions 139R8H and 294T6K were also evaluated. The efficacy of each formulation, surfactant and comparative composition was evaluated at application rates of 100, 200 and 400 g glyphosate a.e. per hectare.
(§6) The efficacy of potassium glyphosate formulations containing various ratios of APG surfactants to EAO surfactants were evaluated in greenhouse trials as compared to comparative compositions 139R8H and 276U4D. The efficacy of each formulation, surfactant and comparative composition was evaluated at application rates of 200, 400 and 600 g glyphosate a.e. per hectare and the results are reported in Table ET4A wherein APG:EAO is the weight ratio of APG surfactant to EAO surfactant and Gly:Surf is the weight ratio of glyphosate a.e. to total surfactant.
The efficacy of potassium glyphosate formulations containing Atplus 452 and EAO surfactants were evaluated in greenhouse trials. The efficacy of each formulation, surfactant and comparative composition was evaluated at application rates of 100, 200, 300 and 400 g glyphosate a.e. per hectare and the results are reported in Table ET5A wherein APG:EAO is the weight ratio of APG surfactant to EAO surfactant and Gly:Surf is the weight ratio of glyphosate a.e. to total surfactant.

[2] = tested on: CHEAL, common lambsquarters (Chenopodium album L.); test: Greenhouse herbicidal efficacy on CHEAL
Protocol: as §1, §2, §3, §4

[3] = tested on: SINAR, wild mustard (Sinapis arvensis L.); test: Greenhouse herbicidal efficacy on SINAR
Protocol: as §1, §2, §3, §4, §5
(§7) The efficacy of potassium glyphosate formulations containing various APG surfactants and an EAO surfactant in an APG:EAO weight ratios and glyphosate a.e. to total surfactant weight ratios (Gly:Surf) as indicated in the tables below. Finally, the efficacy of comparative standard compositions 139R8H and 294T6K were also evaluated. The efficacy of each formulation, surfactant and comparative composition was evaluated at application rates of 100, 200 and 400 g glyphosate a.e. per hectare.
as §6

[4] = tested on: ABUTH, velvetleaf (Abutilon theophrasti Medik.); test: Greenhouse herbicidal efficacy on ABUTH; settings: for Average % control, ABUTH: average for 100, 200 and 400 g a.e./ha application rates
Protocol: as §1, §2, §3
(§8) The herbicidal effectiveness data set forth herein report “inhibition” as a percentage following a standard procedure in the art which reflects a visual assessment of plant mortality and growth reduction by comparison with untreated plants, made by technicians specially trained to make and record such observations. In all cases, a single technician makes all assessments of percent inhibition within any one experiment or trial. […]
(§9) The efficacy of formulations containing potassium glyphosate and an APG surfactant (formulation 179W2N) or an EAO surfactant (formulation 179R6U) in a weight percent ratio of glyphosate a.e. to surfactant of 4:1 was evaluated in greenhouse trials as compared to compositions 276U4D, 351L9P, 294T6K and K-GLY. The efficacy of each formulation, surfactant and comparative composition was evaluated at application rates of 100, 200 and 400 g glyphosate a.e. per hectare and the results are reported in Table ET8A wherein APG:EAO is the weight ratio of alkylpolyglucoside (APG) surfactant to alkoxylated amine oxide (EAO) surfactant and Gly:Surf is the weight ratio of glyphosate a.e. to total surfactant. […]

MALSI, cheeseweed = test: Greenhouse herbicidal efficacy on MALSI; settings: Example ET9; average for 100, 200 and 400 g a.e./ha application rates
Protocol: as §1
The amount of exogenous chemical was selected to provide the desired rate in grams per hectare (g/ha) when applied in a spray volume of 93 l/ha. Several exogenous chemical rates were applied for each composition. […]
as §6, with “surfactant. For each plant species, efficacy results are reported as the average % control for the three application rates (Table ET4a) and the calculated application rate (g a.e./ha) that must be applied to achieve 85% control (Table ET4b).” for “surfactant.”

LOLMG, annual ryegrass = test: Greenhouse herbicidal efficacy on LOLMG
Protocol: as §1, §2, §3, §8, §9

[5] = tested on: LOLMU, Italian ryegrass (Lolium multiflorum Lam.); test: Greenhouse herbicidal efficacy on LOLMU; settings: for Application rate required for 85% control, LOLMU: calculated from rates 100, 200 and 400 g a.e./ha; for Average % control, LOLMU: average for 100, 200 and 400 g a.e./ha application rates
Protocol: as §1, §2, §3, §4, §5, §7

[6] = Example ET1, calculated from rates 100, 200 and 400 g a.e./ha
[7] = Example ET1, greenhouse, average of the three application rates
[8] = Example ET3, average for 100, 200 and 400 g a.e./ha application rates
[9] = Example ET3, calculated from rates 100, 200 and 400 g a.e./ha
[10] = Example ET5, average for 100, 200, 300 and 400 g a.e./ha application rates
[11] = Example ET5, calculated from rates 100, 200, 300 and 400 g a.e./ha
[12] = Example ET6, average for 200, 400 and 600 g a.e./ha application rates
[13] = Example ET6, calculated from rates 200, 400 and 600 g a.e./ha
[14] = Example ET9, average for 100, 200 and 400 g a.e./ha application rates
[15] = Example ET2, calculated from rates 100, 200 and 400 g a.e./ha

O=C(O)CNCP(=O)([O-])O.[K+] [K-GLY, potassium glyphosate]
Application rate required for 85% control, VIOAR [1, 6]: >400.0 g a.e./ha
Average % control for 100, 200 and 400 g a.e./ha application rates, VIOAR [1, 7]: 39.2%
Average % control, VIOAR [1, 8]: 27.5%
Application rate required for 85% control, VIOAR [1, 9]: >400.0 g a.e./ha
Average % control, VIOAR [1, 10]: 34.7%
Application rate required for 85% control, VIOAR [1, 11]: >400.0 g a.e./ha
VIOAR (ave. cntrl) [1, 12]: 31.7%
VIOAR (g a.e./ha for 85% control) [1, 13]: >600.0 g a.e./ha
Average % control, VIOAR [1, 14]: 36.7%
Average % control, CHEAL [2, 8]: 5.0%
Application rate required for 85% control, CHEAL [2, 9]: >400.0 g a.e./ha
CHEAL (ave. cntrl) [2, 12]: 33.3%
CHEAL (g a.e./ha for 85% control) [2, 13]: >600.0 g a.e./ha
Application rate required for 85% control, SINAR [3, 6]: >400.0 g a.e./ha
Average % control for 100, 200 and 400 g a.e./ha application rates, SINAR [3, 7]: 67.5%
Average % control, SINAR ([3]; Example ET2, average for 100, 200 and 400 g a.e./ha application rates): 64.1%
Application rate required for 85% control, SINAR [3, 15]: >400.0 g a.e./ha
Average % control, SINAR [3, 10]: 72.5%
Application rate required for 85% control, SINAR [3, 11]: 366.7 g a.e./ha
SINAR 10 DAT (ave. Ctrl) ([3]; Example ET7, 10 DAT, average for 50, 100 and 300 g a.e./ha application rates): 74.6%
SINAR 10 DAT (g a.e./ha for 85% control) ([3]; Example ET7, 10 DAT, calculated from rates 50, 100 and 300 g a.e./ha): 227.3 g a.e./ha
Average % control, ABUTH ([4]; Example ET2): 40.0%
Application rate required for 85% control, ABUTH [4, 15]: 400.0 g a.e./ha
Average % control, ABUTH ([4]; Example ET9): 27.2%
Average % control, MALSI (MALSI, cheeseweed): 22.8%
Average % control, LOLMG (LOLMG, annual ryegrass; [10]): 42.5%
Application rate required for 85% control, LOLMG (LOLMG, annual ryegrass; [11]): >400.0 g a.e./ha
Average % control, LOLMG (LOLMG, annual ryegrass; [14]): 37.8%
Application rate required for 85% control, LOLMU ([5]; Example ET1): >400.0 g a.e./ha
Average % control for 100, 200 and 400 g a.e./ha application rates, LOLMU [5, 7]: 40.8%
Average % control, LOLMU ([5]; Example ET2): 58.1%
Application rate required for 85% control, LOLMU ([5]; Example ET2): >400.0 g a.e./ha
Average % control, LOLMU ([5]; Example ET3): 27.9%
Application rate required for 85% control, LOLMU ([5]; Example ET3): >400.0 g a.e./ha
LOLMU 23 DAT (ave. control) ([5]; Example ET7, 23 DAT, average for 50, 100 and 300 g a.e./ha application rates): 48.3%
LOLMU 23 DAT (g a.e./ha for 85% control) ([5]; Example ET7, 23 DAT, calculated from rates 50, 100 and 300 g a.e./ha): >300.0 g a.e./ha
